Results published in PubChem BioAssay (NCI).
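All cell lines were grown in 96-well plates and treated with compound for 48 hours. GI50: concentration for 50% inhibition of growth. The concentration for full growth arrest is given as TGI.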

Assays:
Assay in all cases: NCI-60 cell line screen, 48 h
[1] = system: 786-0 renal
[2] = system: A498 renal
[3] = system: A549 NSCLC
[4] = system: ACHN renal
[5] = system: BT-549 breast
[6] = system: CAKI-1 renal
[7] = system: CCRF-CEM leukemia
[8] = system: COLO 205 colon
[9] = system: DU-145 prostate
[10] = system: EKVX NSCLC
[11] = system: HCC-2998 colon
[12] = system: HCT-116 colon
[13] = system: HCT-15 colon
[14] = system: HL-60(TB) leukemia
[15] = system: HOP-62 NSCLC
[16] = system: HOP-92 NSCLC
[17] = system: HS 578T breast
[18] = system: HT29 colon
[19] = system: IGROV1 ovarian
[20] = system: K-562 leukemia
[21] = system: KM12 colon
[22] = system: LOX IMVI melanoma
[23] = system: M14 melanoma
[24] = system: MCF7 breast
[25] = system: MDA-MB-231 breast
[26] = system: MDA-MB-435
[27] = system: MOLT-4 leukemia
[28] = system: NCI-H226 lung
[29] = system: NCI-H23 lung
[30] = system: NCI-H460 lung
[31] = system: NCI-H522 lung
[32] = system: NCI/ADR-RES ovarian
[33] = system: OVCAR-3 ovarian
[34] = system: OVCAR-4 ovarian
[35] = system: OVCAR-5 ovarian
[36] = system: OVCAR-8 ovarian
[37] = system: PC-3 prostate
[38] = system: RPMI-8226 leukemia
[39] = system: RXF 393 renal
[40] = system: SF-268 CNS
[41] = system: SF-295 CNS
[42] = system: SF-539 CNS
[43] = system: SK-MEL-2 melanoma
[44] = system: SK-MEL-28 melanoma
[45] = system: SK-MEL-5 melanoma
[46] = system: SK-OV-3 ovarian
[47] = system: SN12C renal
[48] = system: SNB-19 CNS
[49] = system: SNB-75 CNS
[50] = system: SR leukemia
[51] = system: SW-620 colon
[52] = system: T-47D breast
[53] = system: TK-10 renal
[54] = system: U251 CNS
[55] = system: UACC-257 melanoma
[56] = system: UACC-62 melanoma
[57] = system: UO-31 renal

`Oc1ccccc1/C=N\NC(=S)N/N=C/c1ccccc1O` was tested, and the GI50 [1] was 3490 nM, the TGI [1] was 20 µM and the GI50 [2] was 3660 nM. The TGI [2] was 21.9 µM, the GI50 [3] was 3.5 µM and the TGI [3] was greater than 100 µM. For the same molecule, the GI50 [4] was 1770 nM, the TGI [4] was greater than 100 µM and the GI50 [5] was 13.9 µM. The TGI [5] was greater than 100 µM, the GI50 [6] was 548 nM and the TGI [6] was 3.94 µM. For the same molecule, the GI50 [7] was 648 nM, the TGI [7] was greater than 100 µM and the GI50 [8] was 4230 nM. For the same molecule, the TGI [8] was 18.9 µM, the GI50 [9] was 2950 nM and the TGI [9] was 61 µM. For the same molecule, the GI50 [10] was 2570 nM, the TGI [10] was 24.3 µM and the GI50 [11] was 3620 nM. The TGI [11] was greater than 100 µM, the GI50 [12] was 1370 nM and the TGI [12] was greater than 100 µM. For the same molecule, the GI50 [13] was 589 nM, the TGI [13] was greater than 100 µM and the GI50 [14] was 2040 nM. It also gave a TGI [14] of 14.6 µM, a GI50 [15] of 4.22 µM and a TGI [15] greater than 100 µM. It also gave a GI50 [16] of 10.3 µM, a TGI [16] of 64.5 µM and a GI50 [17] of 10.7 µM. The TGI [17] was 69.6 µM, the GI50 [18] was 6.63 µM and the TGI [18] was 48.8 µM. The GI50 [19] was 1530 nM, the TGI [19] was 16.2 µM and the GI50 [20] was 1590 nM. It also gave a TGI [20] greater than 100000 nM, a GI50 [21] of 3110 nM and a TGI [21] of 21.1 µM. It also gave a GI50 [22] of 1400 nM, a TGI [22] of 27.7 µM and a GI50 [23] of 1630 nM. The TGI [23] was 6.33 µM, the GI50 [24] was 2380 nM and the TGI [24] was 40.3 µM. The GI50 [25] was 3050 nM, the TGI [25] was greater than 100 µM and the GI50 [26] was 1970 nM. For the same molecule, the TGI [26] was 25.3 µM, the GI50 [27] was 1430 nM and the TGI [27] was 22.4 µM. The GI50 [28] was 2260 nM, the TGI [28] was greater than 100 µM and the GI50 [29] was 3.91 µM. For the same molecule, the TGI [29] was greater than 100 µM, the GI50 [30] was 620 nM and the TGI [30] was 12.1 µM. The GI50 [31] was 5.76 µM, the TGI [31] was 36.5 µM and the GI50 [32] was 543 nM. The TGI [32] was greater than 100 µM, the GI50 [33] was 451 nM and the TGI [33] was 24.6 µM. It also gave a GI50 [34] of 640 nM, a TGI [34] of 46.7 µM and a GI50 [35] of 9.38 µM. The TGI [35] was greater than 100 µM, the GI50 [36] was 2340 nM and the TGI [36] was 51.1 µM. It also gave a GI50 [37] of 5.99 µM, a TGI [37] greater than 100 µM and a GI50 [38] of 2770 nM. For the same molecule, the TGI [38] was 34.2 µM, the GI50 [39] was 5.72 µM and the TGI [39] was greater than 100 µM. The GI50 [40] was 1080 nM, the TGI [40] was 44.1 µM and the GI50 [41] was 249 nM. For the same molecule, the TGI [41] was 987 nM, the GI50 [42] was 3260 nM and the TGI [42] was 34.3 µM. The GI50 [43] was 13.4 µM, the TGI [43] was 55.9 µM and the GI50 [44] was 4.14 µM. For the same molecule, the TGI [44] was greater than 100 µM, the GI50 [45] was 1690 nM and the TGI [45] was 8.53 µM. The GI50 [46] was 4.28 µM, the TGI [46] was greater than 100 µM and the GI50 [47] was 3090 nM. It also gave a TGI [47] of 79.5 µM, a GI50 [48] of 2940 nM and a TGI [48] greater than 100 µM. The GI50 [49] was 2240 nM, the TGI [49] was 38.2 µM and the GI50 [50] was 1670 nM. It also gave a TGI [50] greater than 100 µM, a GI50 [51] of 3540 nM and a TGI [51] greater than 100 µM. The GI50 [52] was 3190 nM, the TGI [52] was 54.5 µM and the GI50 [53] was 4.62 µM. The TGI [53] was 53.3 µM, the GI50 [54] was 1070 nM and the TGI [54] was greater than 100 µM. It also gave a GI50 [55] of 2600 nM, a TGI [55] of 16.6 µM and a GI50 [56] of 1230 nM. For the same molecule, the TGI [56] was 7.56 µM, the GI50 [57] was 489 nM and the TGI [57] was 4.91 µM.

Work on `O=S(=O)(NCCCNc1cc(-c2cn(-c3ccccc3)nc2-c2cccc(O)c2)ccn1)c1ccc(Br)cc1` yielded a GI50 [1] of 1500 nM, a TGI [1] of 4.29 µM and a GI50 [2] of 386 nM. It also gave a TGI [2] of 2.89 µM, a GI50 [3] of 2.6 µM and a TGI [3] of 12.6 µM. It also gave a GI50 [4] of 2970 nM, a TGI [4] of 15.4 µM and a GI50 [5] of 1.68 µM. It also gave a TGI [5] of 4.32 µM, a GI50 [6] of 2250 nM and a TGI [6] of 12.6 µM. The GI50 [8] was 1650 nM, the TGI [8] was 3.4 µM and the GI50 [9] was 2450 nM. It also gave a TGI [9] of 8.08 µM, a GI50 [10] of 2290 nM and a TGI [10] of 66.4 µM. It also gave a GI50 [11] of 2000 nM, a TGI [11] of 3.78 µM and a GI50 [12] of 1710 nM. For the same molecule, the TGI [12] was 4.22 µM, the GI50 [13] was 1320 nM and the TGI [13] was 3.51 µM. It also gave a GI50 [14] of 1790 nM, a TGI [14] of 4.92 µM and a GI50 [15] of 1.88 µM. For the same molecule, the TGI [15] was 4.59 µM, the GI50 [16] was 1.83 µM and the TGI [16] was 7.55 µM. The GI50 [17] was 1.16 µM, the TGI [17] was 4.82 µM and the GI50 [18] was 0.639 µM. The TGI [18] was 2.35 µM, the GI50 [19] was 3580 nM and the TGI [19] was 29 µM. For the same molecule, the GI50 [20] was 444 nM, the TGI [20] was 2890 nM and the GI50 [21] was 1650 nM. For the same molecule, the TGI [21] was 3.94 µM, the GI50 [22] was 1490 nM and the TGI [22] was 2.9 µM. It also gave a GI50 [23] of 1780 nM, a TGI [23] of 3.78 µM and a GI50 [24] of 1760 nM. The TGI [24] was 5.16 µM, the GI50 [25] was 1600 nM and the TGI [25] was 4.25 µM. For the same molecule, the GI50 [26] was 1700 nM, the TGI [26] was 3.53 µM and the GI50 [27] was 1130 nM. It also gave a TGI [27] of 3.73 µM, a GI50 [28] of 2320 nM and a TGI [28] of 8.66 µM. It also gave a GI50 [29] of 2.19 µM, a TGI [29] of 12.1 µM and a GI50 [30] of 1770 nM. The TGI [30] was 3.72 µM, the GI50 [31] was 2.11 µM and the TGI [31] was 4.85 µM. It also gave a GI50 [32] of 2330 nM, a TGI [32] of 8.19 µM and a GI50 [33] of 1660 nM. The TGI [33] was 3.61 µM, the GI50 [34] was 1860 nM and the TGI [34] was 8.65 µM. It also gave a GI50 [35] of 2.12 µM, a TGI [35] of 5.55 µM and a GI50 [36] of 2450 nM. It also gave a TGI [36] of 9.29 µM, a GI50 [37] of 2.11 µM and a TGI [37] of 7.83 µM. For the same molecule, the GI50 [38] was 1450 nM, the TGI [38] was 4.68 µM and the GI50 [39] was 1.09 µM. It also gave a TGI [39] of 3.5 µM, a GI50 [40] of 1450 nM and a TGI [40] of 4.98 µM. It also gave a GI50 [41] of 1360 nM, a TGI [41] of 3090 nM and a GI50 [42] of 1690 nM. It also gave a TGI [42] of 4.01 µM, a GI50 [43] of 1.95 µM and a TGI [43] of 3.84 µM. The GI50 [44] was 1.97 µM, the TGI [44] was 4.31 µM and the GI50 [45] was 1270 nM. The TGI [45] was 2.63 µM, the GI50 [46] was 2.76 µM and the TGI [46] was 9.3 µM. It also gave a GI50 [47] of 2750 nM, a TGI [47] of 9.8 µM and a GI50 [48] of 2980 nM. For the same molecule, the TGI [48] was 14.7 µM, the GI50 [49] was 1220 nM and the TGI [49] was 7.81 µM. For the same molecule, the GI50 [50] was 1510 nM, the TGI [50] was 5.49 µM and the GI50 [51] was 1620 nM. For the same molecule, the TGI [51] was 3.65 µM, the GI50 [52] was 1760 nM and the TGI [52] was 6.38 µM. The GI50 [53] was 3.35 µM, the TGI [53] was 10.2 µM and the GI50 [54] was 1210 nM. The TGI [54] was 4.44 µM, the GI50 [56] was 1570 nM and the TGI [56] was 3.59 µM. It also gave a GI50 [57] of 2170 nM and a TGI [57] of 8.95 µM.
